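Briefly, cells in 96-well plates were exposed to five compound concentrations for 48 h, and endpoints were estimated by linear interpolation. TGI marks complete inhibition of growth.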

Experimental findings from PubChem BioAssay (NCI) are described below.

Common to all, as to test: NCI anticancer screen, dose series, 48 h
In test [1] the test system is HL-60(TB) leukemia.
Test [2] relates to SF-539 CNS.
Test [3] relates to HCT-15 colon.
The test system of test [4] is EKVX NSCLC.
Test [5] has as its system IGROV1 ovarian.
Test [6] has as its system 786-0 renal.
The subject of test [7] is K-562 leukemia.
Test [8] has as its system TK-10 renal.
Test [9] deals with HOP-62 NSCLC.
Test [10] relates to ACHN renal.
In test [11] the test system is SF-268 CNS.
Test [12] deals with NCI/ADR-RES ovarian.

For `O=C(/C=C/c1ccc(OCCCCCCCCCCOc2ccc(/C=C/C(=O)c3ccc(Cl)cc3)cc2)cc1)c1ccc(Cl)cc1`, the TGI in [1], in [2], in test [3], in test [4], in [5] and in [6] was over 100 µM in each case. Further, the TGI in [7], in test [8], in test [9], in test [10] and in test [11] was over 100 µM each time.

As to `N/C(CC/C(N)=N\O)=N\O`, the TGI in [12], in test [3], in [4], in [5], in test [6] and in test [7] was over 100 µM in each case. Moreover, the TGI in [8], in test [9], in [10] and in test [11] was over 100 µM throughout.

Consider `On1c(-c2ccccc2)c(-c2c(-c3ccccc3)n(O)c3ccccc23)c2ccccc21`, for which the TGI in test [1] is over 100 µM; in test [2] it was 58.8 µM; in test [3] it was over 100 µM; in [6] it was 39.7 µM; in test [7] it was over 100 µM; in [8] it was over 100 µM. Moreover, the TGI was 87.5 µM in test [10] and over 100 µM in test [11].

`C=C(NC(=O)C(=C)NC(=O)c1csc(C2=NC3c4csc(n4)C4NC(=O)c5csc(n5)C(C(C)(O)C(C)O)NC(=O)C5CSC(=N5)/C(=C/C)NC(=O)C(C(C)O)NC(=O)c5csc(n5)C3(CC2)NC(=O)C(C)NC(=O)C(=C)NC(=O)C(=C)NC(=O)C(C(C)C)NC2C=Cc3c(C(C)O)cc(nc3C2O)C(=O)OC4C)n1)C(N)=O` (stereo not drawn): the TGI in test [12] was over 100 µM; in [3], over 63.4 µM; in [4], over 100 µM; in test [5] it was 58.9 µM; in test [6], 11.3 µM; in test [7], over 48.3 µM. The TGI was over 94.8 µM in test [8], over 100 µM in test [9], over 61.2 µM in test [10] and over 100 µM in test [11].

For `O=C(NCCNCCO)N/N=C/c1cccc([N+](=O)[O-])c1`, the TGI in test [1], in test [2], in test [3], in [5], in test [6] and in test [7] was over 100 µM each time. Also, the TGI in test [8], in test [9], in [10] and in test [11] was over 100 µM in each case.

In the case of `COC(=O)OCC1OC(N2C(=O)NC(=O)C(I)C2N=[N+]=[N-])CC1OC(=O)OC` (stereo not drawn), the TGI in [1], in [2], in test [3], in test [5], in [6] and in [7] was over 100 µM throughout. Also, the TGI in [8], in [9], in test [10] and in test [11] was over 100 µM each time.

In the case of `CCCCCCCCCCCCNC(=O)NCC(OCC)OCC`, the TGI in [2], in test [3], in [4], in test [5], in test [6] and in test [7] was over 10 µM throughout. Moreover, the TGI in test [8], in test [9], in [10] and in test [11] was over 10 µM each time.

Turning to `O=[N+]([O-])/C(C(Cl)=C(Cl)Cl)=C1\Nc2ccccc2O1`, the TGI in [1] is 48.7 µM; in test [2], 38.6 µM; in test [3], over 100 µM; in test [4] it was over 100 µM; in test [5], over 100 µM; in test [6] it was 32.1 µM. Also, the TGI in test [7], in test [8], in test [9], in [10] and in test [11] was over 100 µM throughout.

With `O=C(NC1CCCCC1)c1c(O)[nH]c(=S)[nH]c1=O`, the TGI in test [2], in test [3], in [5], in test [6], in [8] and in [9] was over 100 µM throughout. Moreover, the TGI in [10] and in test [11] was over 100 µM each time.

Turning to `COc1ccc(-c2nc3ncccn3c2-c2ccc(S(C)=O)cc2)cc1` (stereo not drawn), the TGI in test [1], in test [2], in [12], in [3], in test [5] and in test [6] was over 100 µM in each case. The TGI in [7], in [9], in [10] and in test [11] was over 100 µM each time.

On to `COC(=O)c1ccc(CN2CCc3c([nH]c4ccccc34)C2CO)o1` (stereo not drawn), for which the TGI in test [1], in [3], in test [4], in test [5], in test [6] and in test [7] was over 10 µM throughout. Moreover, the TGI in test [8], in test [9] and in test [11] was over 10 µM throughout.

Regarding `Oc1c(Cl)c2nccnc2c2ccccc12`, the TGI in test [1], in [2], in [3], in test [4], in test [5] and in test [6] was over 100 µM in each case. The TGI in test [7], in test [8], in test [10] and in test [11] was over 100 µM in each case.

For the compound `COc1c2cc(C(C)(C)C)cc1CSCc1cc(C(C)(C)C)cc(c1OC)CCCCC2`, the TGI in test [1], in test [2], in test [12], in [3], in test [5] and in test [6] was over 50 µM throughout. The TGI in test [7], in [8], in test [9], in test [10] and in [11] was over 50 µM in each case.
